Measured values published in patent publication US20260256779A1, “PYRIDAZIN-3-CARBOXAMIDE COMPOUND AS TYK2 INHIBITOR” (Guangzhou Fermion Technology Co., Ltd., priority 2022, published 2026).

Key:
TYK2 JH2 pseudokinase = molecular target: T1, TYK2 JH2 pseudokinase (Homo sapiens, UniProt P29597); assay: TYK2 JH2 in vitro enzyme binding assay (TR-FRET); conditions: 60 min at room temperature
T1 construct: 5 μL of 3×TYK2 JH2 kinase (Bioduro); purchased Bioduro
Procedure: Purpose: The purpose of this test example was to use a fluorescence resonance energy transfer (TR-FRET) method to test the binding effect of the compound on a TYK2 JH2 pseudokinase, and then evaluate the affinity of the compound for TYK2 JH2.
DMSO-dissolved compounds were used to prepare 10 mM stock solutions, then 200× compounds having different gradient concentrations were prepared in a compound dilution plate, and transferred to an Echo plate. 75 nL of the compounds were transferred from the Echo plate to a 384-well assay plate using an Echo instrument, and 5 μL of 3×TYK2 JH2 kinase (Bioduro), 5 μL of 3× Tb antibody (Cisbio) and 5 μL of 3×TRACER (Bioduro) were added to the 384-well assay plate, centrifuged for 30 seconds, and incubated at room temperature for 60 minutes. A 495 nm/520 nm fluorescence signal ratio was read by an Envision microplate reader (PerkinElmer), and data was analyzed using XL-Fit software to calculate the IC50 of the compound.

[1] = Pharmacokinetic evaluation by intravenous injection or oral gavage in mice; type: in vivo; conditions: ICR mice; for AUC(0-t) / Cmax / Tmax / half-life / clearance / Vd: mouse, plasma; for Vd: read-out: Vz
Procedure: The inventors evaluated the pharmacokinetic properties of the compound of the present invention in mice.
The compound of the present invention was administered to the test animals in the form of 5% DMA+5% Solutol+90% saline or 5% ethanol+5% TPGS+90% PEG300 solvent. The animals were fasted for 12 hours before administration and had free access to water. For the intravenous administration group, the dose was 1 mg/kg. The drug was administered by intragastric administration at a dose of 10 mg/kg. After the drug administration, blood was intravenously drawn from the animals at the following time points (blood volume was approximately 0.3 mL): 0.083, 0.25, 0.5, 1.0, 2.0, 4.0, 8.0 and 24 h. EDTA-K2 was pre-added to blood collection tubes as an anticoagulant, and the blood samples were centrifuged at 6800 g for 6 min to collect plasma, which was then stored at −80° C.
Sample preparation for LC-MS/MS assay: 15 μL of plasma samples was used for protein precipitation with 300 μL of methanol containing 100 ng/mL IS (IS was tolbutamide). The mixture was vortexed for 1 min and then centrifuged at 18000 g for 10 min. 300 μL of the supernatant was transferred to a 96-well plate. 2 μL of the supernatant was subjected to LC-MS/MS analysis.

[2] = system: IL-2-induced CD3+ pSTAT5 (JAK1/3) in hPBMC; assay: IL-2-induced STAT5 phosphorylation (JAK1/3) in CD3+ cell subpopulations in human PBMC, flow cytometry; type: cell-based; conditions: CD3+ cells, IL-2 stimulation
Procedure: Purpose: The purpose of this test example was to test the inhibitory effect of the compound on IL-2-induced STAT5 phosphorylation using protein phosphorylation flow cytometric analysis technology.
Human PBMC cells were pre-incubated with the compounds, STAT5 was induced to phosphorylate under appropriate stimulation conditions, and corresponding cell subpopulations and targets were stained. Flow cytometry was used to read cell data and analyze the strength of phosphorylated antibody signals under different compound concentrations. PBMCs were resuspended and dispensed into a 96-well plate, 62.5 μL/well. 3.5 μL of 20× compound working solutions were added and incubated at 37° C. for 30 minutes. 5 μL of PE Mouse Anti-Human CD3 (BD) was added and incubated at 37° C. in the dark for 30 minutes. 4 μL of 20× IL-2 (R&D) was added to each well and incubated at 37° C. in the dark for 20 minutes. All cells in the 96-well plate were transferred to a deep-well plate, 400 μL of a fixation working solution (Biolegend) was added to each well, and incubated at room temperature in the dark for 20 minutes. The cells were washed twice with PBS, and 400 μL of Perm Buffer III (BD) was added and incubated at 4° C. in the dark for 40 minutes. The cells were washed twice with PBS, and 100 μL of a STAT5 pY694 antibody working solution (BD) was added and incubated at room temperature for 40 minutes. After washing once with PBS, the cells were resuspended in 200 μL of a staining buffer and transferred to a sample plate. The antibody fluorescence intensity was analyzed using FlowJo software, and the IC50 of the compound was calculated using XL-Fit software.

[3] = intragastric administration, 10 mg/kg
[4] = po, intragastric administration, 10 mg/kg
[5] = intravenous administration, 1 mg/kg

T1 sequence (P29597 589-875 limits assumed): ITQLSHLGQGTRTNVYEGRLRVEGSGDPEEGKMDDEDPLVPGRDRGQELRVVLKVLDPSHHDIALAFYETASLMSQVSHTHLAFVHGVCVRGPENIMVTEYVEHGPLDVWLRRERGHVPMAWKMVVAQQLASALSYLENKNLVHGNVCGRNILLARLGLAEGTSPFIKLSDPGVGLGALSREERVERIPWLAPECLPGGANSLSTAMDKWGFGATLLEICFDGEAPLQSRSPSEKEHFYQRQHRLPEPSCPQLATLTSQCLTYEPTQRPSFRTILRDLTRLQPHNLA

CONC(=O)c1nnc(Nc2cccc(C#N)n2)cc1Nc1cccc(-c2ncn(C)n2)c1OC [Compound 2, 6-((6-cyanopyridin-2-yl)amino)-N-methoxy-4-((2-methoxy-3-(1-methyl-1H-1,2,4-triazol-3-yl)phenyl)amino)pyridazine-3-carboxamide]
IC50 (TYK2 JH2 pseudokinase): 0.16 nM

CCONC(=O)c1nnc(NC(=O)C2CC2)cc1Nc1cc(F)cc(-c2ncn(C3CC3)n2)c1OC [Compound 8, 6-(Cyclopropylcarboxamido)-4-((3-(1-cyclopropyl-1H-1,2,4-triazol-3-yl)-5-fluoro-2-methoxyphenyl)amino)-N-ethoxypyridazine-3-carboxamide]
IC50 (TYK2 JH2 pseudokinase): 0.33 nM

CCONC(=O)c1nnc(NC(=O)C2CC2)cc1Nc1cccc(-c2ncn(C)n2)c1OC [Compound 3, 6-(Cyclopropylcarboxamido)-N-ethoxy-4-((2-methoxy-3-(1-methyl-1H-1,2,4-triazol-3-yl)phenyl)amino)pyridazine-3-carboxamide]
IC50 (TYK2 JH2 pseudokinase): 0.13 nM

[2H]C([2H])([2H])Oc1c(Nc2cc(NC(=O)C3CC3)nnc2C(=O)NOCC)cccc1-c1ncn(C2CC2)n1 [Compound 9, 6-(Cyclopropylcarboxamido)-4-((3-(1-cyclopropyl-1H-1,2,4-triazol-3-yl)-2-(methoxy-d3)phenyl)amino)-N-ethoxypyridazine-3-carboxamide]
IC50 (TYK2 JH2 pseudokinase): 0.22 nM
F [1, 3]: 72.48%
AUC(0-t) [1, 4]: 20100 ng·h/mL
Cmax [1, 4]: 9220 ng/mL
Tmax [1, 4]: 0.67 h
half-life [1, 4]: 4.64 h
AUC(0-t) [1, 5]: 2780 ng·h/mL
Cmax [1, 5]: 3730 ng/mL
Tmax [1, 5]: 0.08 h
clearance [1, 5]: 6.09 mL/min/kg
half-life [1, 5]: 4.3 h
Vd [1, 5]: 1.8 L/kg
IC50 [2]: > 30000 nM

[2H]C([2H])([2H])n1cnc(-c2cccc(Nc3cc(NC(=O)C4CC4)nnc3C(=O)NOCC)c2OC)n1 [Compound 5, 6-(Cyclopropylcarboxamido)-N-ethoxy-4-((2-methoxy-3-(1-(methyl-d3)-1H-1,2,4-triazol-3-yl)phenyl)amino)pyridazine-3-carboxamide]
IC50 (TYK2 JH2 pseudokinase): 0.26 nM

BMS-986165 [reference compound]
IC50 [2]: 409 nM

CCONC(=O)c1nnc(NC(=O)C2CC2)cc1Nc1cc(F)cc(-c2ncn(C)n2)c1OC [Compound 4, 6-(Cyclopropylcarboxamido)-N-ethoxy-4-((5-fluoro-2-methoxy-3-(1-methyl-1H-1,2,4-triazol-3-yl)phenyl)amino)pyridazine-3-carboxamide]
IC50 (TYK2 JH2 pseudokinase): 0.2 nM

[2H]C([2H])([2H])C([2H])([2H])ONC(=O)c1nnc(NC(=O)C2CC2)cc1Nc1cccc(-c2ncn(C)n2)c1OC [Compound 15, 6-(Cyclopropylcarboxamido)-N-(ethoxy-d5)-4-((2-methoxy-3-(1-methyl-1H-1,2,4-triazol-3-yl)phenyl)amino)pyridazine-3-carboxamide]
IC50 (TYK2 JH2 pseudokinase): 0.14 nM

CONC(=O)c1nnc(NC(=O)C2CC2)cc1Nc1cccc(-c2ncn(C)n2)c1OC [Compound 1, 6-(Cyclopropylcarboxamido)-N-methoxy-4-((2-methoxy-3-(1-methyl-1H-1,2,4-triazol-3-yl)phenyl)amino)pyridazine-3-carboxamide]
IC50 (TYK2 JH2 pseudokinase): 0.17 nM

[2H]C([2H])([2H])n1cnc(-c2cc(F)cc(Nc3cc(NC(=O)C4CC4)nnc3C(=O)NOCC)c2OC)n1 [Compound 6, 6-(Cyclopropylcarboxamido)-N-ethoxy-4-((5-fluoro-2-methoxy-3-(1-(methyl-d3)-1H-1,2,4-triazol-3-yl)phenyl)amino)pyridazine-3-carboxamide]
IC50 (TYK2 JH2 pseudokinase): 0.3 nM

[2H]C([2H])([2H])ONC(=O)c1nnc(NC(=O)C2CC2)cc1Nc1cccc(-c2ncn(C)n2)c1OC [Compound 14, 6-(Cyclopropylcarboxamido)-N-(methoxy-d3)-4-((2-methoxy-3-(1-methyl-1H-1,2,4-triazol-3-yl)phenyl)amino)pyridazine-3-carboxamide]
IC50 (TYK2 JH2 pseudokinase): 0.27 nM

[2H]C([2H])([2H])C([2H])([2H])ONC(=O)c1nnc(NC(=O)C2CC2)cc1Nc1cccc(-c2ncn(C3CC3)n2)c1OC [Compound 17, 6-(Cyclopropylcarboxamido)-4-((3-(1-cyclopropyl-1H-1,2,4-triazol-3-yl)-2-methoxyphenyl)amino)-N-(ethoxy-d5)pyridazine-3-carboxamide]
IC50 (TYK2 JH2 pseudokinase): 0.19 nM
F [1, 3]: 94.13%
AUC(0-t) [1, 4]: 17500 ng·h/mL
Cmax [1, 4]: 5640 ng/mL
Tmax [1, 4]: 0.67 h
half-life [1, 4]: 5.03 h
AUC(0-t) [1, 5]: 1860 ng·h/mL
Cmax [1, 5]: 3400 ng/mL
Tmax [1, 5]: 0.08 h
clearance [1, 5]: 9.13 mL/min/kg
half-life [1, 5]: 3.61 h
Vd [1, 5]: 2.77 L/kg
IC50 [2]: > 30000 nM

CCONC(=O)c1nnc(NC(=O)C2CC2)cc1Nc1cccc(-c2ncn(C3CC3)n2)c1OC [Compound 7, 6-(Cyclopropylcarboxamido)-4-((3-(1-cyclopropyl-1H-1,2,4-triazol-3-yl)-2-methoxyphenyl)amino)-N-ethoxypyridazine-3-carboxamide]
IC50 (TYK2 JH2 pseudokinase): 0.17 nM
F [1, 3]: 29.09%
AUC(0-t) [1, 4]: 7850 ng·h/mL
Cmax [1, 4]: 3460 ng/mL
Tmax [1, 4]: 0.83 h
half-life [1, 4]: 3.75 h
AUC(0-t) [1, 5]: 2700 ng·h/mL
Cmax [1, 5]: 3620 ng/mL
Tmax [1, 5]: 0.08 h
clearance [1, 5]: 6.13 mL/min/kg
half-life [1, 5]: 1.51 h
Vd [1, 5]: 0.81 L/kg
IC50 [2]: > 30000 nM

[2H]C([2H])([2H])ONC(=O)c1nnc(NC(=O)C2CC2)cc1Nc1cccc(-c2ncn(C3CC3)n2)c1OC [Compound 16, 6-(Cyclopropanamido)-4-((3-(1-cyclopropyl-1H-1,2,4-triazol-3-yl)-2-methoxyphenyl)amino)-N-(methoxy-d3)pyridazine-3-carboxamide]
IC50 (TYK2 JH2 pseudokinase): 0.29 nM
